Bounds are passed on as bounds.

Experiment [1] has as its target TAF1-BD1 (Homo sapiens, UniProt P21675). Put plainly: TAF1-BD1 TR-FRET Binding Assay. The conditions noted are these: read-out: TAF1-BD1 HTRF IC50. As for the experimental part: IC50 Measurements for Inhibitors Using TAF1-BD1 TR-FRET Binding Assay
His/Flag epitope tagged TAF1-BD11381-1497 was cloned, expressed, and purified to homogeneity. TAF1-BD binding and inhibition was assessed by monitoring the engagement of a biotinylated small molecule compound 1000 with the target using the TR-FRET assay technology (Perkin-Elmer). Specifically, in a 384 well ProxiPlate, TAF1-BDI (0.08 uM final) in 50 mM HEPES (pH 7.5; final), 50 mM NaCl (final), 1 mM TCEP (final), 0.1 mg/mL BSA (final), and 0.069 mM Brij-35 (final) was added either in the presence of DMSO (final 0.2% DMSO) or compound dilution series in DMSO. After a 10 minute incubation at room temperature, biotin-ligand (0.08 uM final) was added. After 10 minutes incubation at room temperature, a mixture Eu-W1024 Anti-6×His antibody (Perkin Elmer ADO 110) and SureLight™ Streptavidin-Allophycocyanin (SA-APC, Perkin Elmer CR130-100) were added to final concentrations of 0.2 nM antibody and 0.05 uM SA-APC, respectively. After forty minutes of equilibration at room temperature, the plates were read on an Envision instrument and IC50s calculated using a four parameter logistic model (XLFIT).

Experiment [2] concerns the target TAF1-BD2 (Homo sapiens, UniProt P21675). The experiment in a line: TAF1-BD2 TR-FRET Binding Assay. As to conditions: read-out: TAF1-BD2 HTRF IC50. As for the experimental part: IC50 Measurements for Inhibitors Using TAF1-BD2 TR-FRET Binding Assay
His/Flag epitope tagged TAF1-BD21504-1635 was cloned, expressed, and purified to homogeneity. TAF1-BD2 binding and inhibition was assessed by monitoring the engagement of a biotinylated small molecule compound 1000 with the target using the TR-FRET assay technology (Perkin-Elmer). Specifically, in a 384 well ProxiPlate, TAF1-BD2 (0.012 uM final) in 50 mM HEPES (pH 7.5; final), 50 mM NaCl (final), 1 mM TCEP (final), 0.1 mg/mL BSA (final), and 0.069 mM Brij-35 (final) was added either in the presence of DMSO (final 0.2% DMSO) or compound dilution series in DMSO. After a 10 minute incubation at room temperature, biotin-ligand (0.04 uM final) was added. After 10 minutes incubation at room temperature, a mixture Eu-W1024 Anti-6×His antibody (Perkin Elmer AD0110) and SureLight™ Streptavidin-Allophycocyanin (SA-APC, Perkin Elmer CR130-100) were added to a final concentration of 0.2 nM antibody and 0.025 uM SA-APC, respectively. After forty minutes of equilibration at room temperature, the plates were read on an Envision instrument and IC50s calculated using a four parameter logistic model (XLFIT).
(In general: In TR-FRET formats the signal depends on donor and acceptor labels being close together.)

`Cc1ccccc1COC(=O)c1c(C)[nH]c2c(=O)n(C)cc(C#CC(C)(C)O)c12` [Example 121, o-tolylmethyl 4-(3-hydroxy-3-methyl-but-1-ynyl)-2,6-dimethyl-7-oxo-1H-pyrrolo[2,3-c]pyridine-3-carboxylate]: the IC50 in experiment [1] was found to be 85 nM; in experiment [2], 21.5 nM.

Consider `CCOC(=O)c1c(C)[nH]c2c(=O)n(C)cc(C#C[C@@](C)(O)c3cc(C)no3)c12` [Example 69, ethyl 4-[(3R)-3-hydroxy-3-(3-methylisoxazol-5-yl)but-1-ynyl]-2,6-dimethyl-7-oxo-1H-pyrrolo[2,3-c]pyridine-3-carboxylate], for which the results for the IC50 in experiment [1] and in experiment [2] were 210 nM and 61 nM, respectively.

In the case of `CCOC(=O)c1c(C)[nH]c2c(=O)n(C)cc(C#CC(O)(c3cccc(-c4cc[nH]n4)c3)C(F)(F)F)c12` (stereo not shown) [Example 44, ethyl 2,6-dimethyl-7-oxo-4-[4,4,4-trifluoro-3-hydroxy-3-[3-(1H-pyrazol-3-yl)phenyl]but-1-ynyl]-1H-pyrrolo[2,3-c]pyridine-3-carboxylate], the IC50 in experiment [1] was 226 nM; in experiment [2], 17 nM.

Turning to `Cc1[nH]c2c(=O)n(C)cc(C#CC(C)(C)O)c2c1C(=O)OC(C)(C)CC#N` [Example 163, (2-cyano-1,1-dimethyl-ethyl) 4-(3-hydroxy-3-methyl-but-1-ynyl)-2,6-dimethyl-7-oxo-1H-pyrrolo[2,3-c]pyridine-3-carboxylate], the IC50 amounted to 283 nM in experiment [1] and 27.3 nM in experiment [2].

Take `Cc1[nH]c2c(=O)n(C)cc(C#CC(C)(O)C3CC3)c2c1C(=O)OCc1cccc2cccnc12` (stereo not shown) [Example 105, 8-quinolylmethyl 4-(3-cyclopropyl-3-hydroxy-but-1-ynyl)-2,6-dimethyl-7-oxo-1H-pyrrolo[2,3-c]pyridine-3-carboxylate]: the concentration for half-maximal inhibition (IC50) in experiment [1] was 93.9 nM; in experiment [2] it was 34.6 nM.

Take `C=CCCn1cc(C#C[C@](C)(O)c2cc(C)on2)c2c(C(=O)OCC)c(C)[nH]c2c1=O` [Example 71, ethyl 6-but-3-enyl-4-[(3S)-3-hydroxy-3-(5-methylisoxazol-3-yl)but-1-ynyl]-2-methyl-7-oxo-1H-pyrrolo[2,3-c]pyridine-3-carboxylate]: the IC50 is 2510 nM in experiment [1] and 190 nM in experiment [2].

As for `Cc1[nH]c2c(=O)n(C)cc(C#CC(O)(c3ccccc3)C(F)(F)F)c2c1-c1nnc(C2CC2)o1` (stereo not shown) [Example 180, 3-(5-cyclopropyl-1,3,4-oxadiazol-2-yl)-2,6-dimethyl-4-(4,4,4-trifluoro-3-hydroxy-3-phenyl-but-1-ynyl)-1H-pyrrolo[2,3-c]pyridin-7-one], the figures for the IC50 in experiment [1] and in experiment [2] were 249 nM and 47.1 nM, respectively.

`CCOC(=O)c1c(C2CC2)[nH]c2c(=O)n(C)cc(C#CC(C)(C)O)c12` [Example 207, ethyl 2-cyclopropyl-4-(3-hydroxy-3-methyl-but-1-ynyl)-6-methyl-7-oxo-1H-pyrrolo[2,3-c]pyridine-3-carboxylate]: the IC50 was 957 nM in experiment [1] and 353 nM in experiment [2].

Turning to `Cc1[nH]c2c(=O)n(C)cc(C#CC(C)(C)O)c2c1C(=O)NC(C)C` [Example 169, 4-(3-hydroxy-3-methyl-but-1-ynyl)-N-isopropyl-2,6-dimethyl-7-oxo-1H-pyrrolo[2,3-c]pyridine-3-carboxamide], the IC50 in experiment [1] is 5310 nM; in experiment [2] it was 2670 nM.

Consider `Cc1[nH]c2c(=O)n(C)cc(C#CC(C)(O)c3ccccc3)c2c1C(=O)OC(C)(C)C` (stereo not shown) [Example 162, tert-butyl 4-(3-hydroxy-3-phenyl-but-1-ynyl)-2,6-dimethyl-7-oxo-1H-pyrrolo[2,3-c]pyridine-3-carboxylate], for which the IC50 in experiment [1] is 318 nM; in experiment [2], 54.4 nM.

Turning to `Cc1[nH]c2c(=O)n(C)cc(C#CC(C)(O)C3CC3)c2c1-c1nnc(C(C)(C)C)o1` (single isomer, unassigned) [Example 98a, 3-(5-tert-butyl-1,3,4-oxadiazol-2-yl)-4-(3-cyclopropyl-3-hydroxy-but-1-ynyl)-2,6-dimethyl-1H-pyrrolo[2,3-c]pyridin-7-one], the IC50 in experiment [1] came to 728 nM; in experiment [2], 227 nM.

In the case of `CCOC(=O)c1c(C)[nH]c2c(=O)n(C)cc(C#CC3(O)CCN(C)CC3)c12` [Example 9, ethyl 4-[2-(4-hydroxy-1-methyl-4-piperidyl)ethynyl]-2,6-dimethyl-7-oxo-1H-pyrrolo[2,3-c]pyridine-3-carboxylate], the IC50 was 14500 nM in experiment [1] and 815 nM in experiment [2].

On to `C=CCCn1cc(C#C[C@@](C)(O)c2cc(C)on2)c2c(C(=O)OCc3ccccc3C)c(C)[nH]c2c1=O` [Example 123, o-tolylmethyl 6-but-3-enyl-4-[(3R)-3-hydroxy-3-(5-methylisoxazol-3-yl)but-1-ynyl]-2-methyl-7-oxo-1H-pyrrolo[2,3-c]pyridine-3-carboxylate], for which the IC50 was more than 20000 nM in experiment [1] and 243 nM in experiment [2].

As to `CCOC(=O)c1c(C)[nH]c2c(=O)n(C)cc(C#CC(C)(O)c3cccc(F)c3)c12` (stereo not shown) [Example 33, ethyl 4-[3-(3-fluorophenyl)-3-hydroxy-but-1-ynyl]-2,6-dimethyl-7-oxo-1H-pyrrolo[2,3-c]pyridine-3-carboxylate], the IC50 in experiment [1] came to 218 nM; in experiment [2] it was 60 nM.

In the case of `Cc1[nH]c2c(=O)n(C)cc(C#CC(C)(C)O)c2c1C(=O)OC(C)(C)CCN` [Example 165, (3-amino-1,1-dimethyl-propyl) 4-(3-hydroxy-3-methyl-but-1-ynyl)-2,6-dimethyl-7-oxo-1H-pyrrolo[2,3-c]pyridine-3-carboxylate], the IC50 in experiment [1] was 551 nM; in experiment [2] it was 21.7 nM.

On to `CCOC(=O)c1c(C)[nH]c2c(=O)n(C)cc(C#CC(O)(c3ccccc3)C(F)(F)F)c12` (single isomer, unassigned) [Example 91a, ethyl 2,6-dimethyl-7-oxo-4-(4,4,4-trifluoro-3-hydroxy-3-phenyl-but-1-ynyl)-1H-pyrrolo[2,3-c]pyridine-3-carboxylate], for which the IC50 in experiment [1] turned out to be 749 nM; in experiment [2] it was 206 nM.

For `CCOC(=O)c1c(C)[nH]c2c(=O)n(C)cc(C#C[C@](C)(O)c3ncccn3)c12` [Example 5, ethyl 4-[(3S)-3-hydroxy-3-pyrimidin-2-yl-but-1-ynyl]-2,6-dimethyl-7-oxo-1H-pyrrolo[2,3-c]pyridine-3-carboxylate], the half-maximal inhibitory concentration (IC50) amounted to 8350 nM in experiment [1] and 1630 nM in experiment [2].

Turning to `Cc1[nH]c2c(=O)n(C)cc(C#CC(C)(O)C3CC3)c2c1-c1nnco1` (stereo not shown) [Example 182, 4-(3-cyclopropyl-3-hydroxy-but-1-ynyl)-2,6-dimethyl-3-(1,3,4-oxadiazol-2-yl)-1H-pyrrolo[2,3-c]pyridin-7-one], the IC50 in experiment [1] is 285 nM; in experiment [2], 53.5 nM.

In the case of `Cc1[nH]c2c(=O)n(C)cc(C#CC(C)(C)O)c2c1C(=O)OCc1ccccc1C#N` [Example 110, (2-cyanophenyl)methyl 4-(3-hydroxy-3-methyl-but-1-ynyl)-2,6-dimethyl-7-oxo-1H-pyrrolo[2,3-c]pyridine-3-carboxylate], the IC50 in experiment [1] came to 116 nM; in experiment [2], 29.4 nM.

On to `CCOC(=O)c1c(C)[nH]c2c(=O)n(C)cc(C#Cc3cccnc3)c12` [Example 61, ethyl 2,6-dimethyl-7-oxo-4-[2-(3-pyridyl)ethynyl]-1H-pyrrolo[2,3-c]pyridine-3-carboxylate], for which the IC50 was determined as 292 nM in experiment [1] and 47.7 nM in experiment [2].

As usually defined, the IC50 is the concentration at which inhibition is half-maximal.

(Values after patent US10202378B2, “Therapeutic compounds and uses thereof” (GENENTECH, INC., priority 2015, dated 2019).)
